Measurements reported in patent US20250353873A1, “COMPOUNDS AND METHODS FOR MODULATING APOE EXPRESSION” (Ionis Pharmaceuticals, Inc., priority 2024, published 2025).
Like-named read-outs stand apart in the source and are kept apart here. Strand notation (5' to 3'): a small letter for the sugar, then the base; units joined by * are phosphorothioate-linked, units joined directly phosphodiester-linked; [ ] holds rarer units or linkages, { } end groups; capitals alone tell only the bases. [ms] = mesyl phosphoramidate linkage; e = 2'-O-(2-methoxyethyl) (MOE); k = constrained ethyl (cEt); [5mC] = 5-methylcytosine; d = 2'-deoxy (DNA)

Key:
[1] = system: human APOE RNA; test: Activity in APOE C57BL/6NTac-Apoeem7250 knock-in mice, single ICV bolus, 2 weeks (Example 9); assay type: in vivo; details: single ICV bolus 300 μg
Procedure: Modified oligonucleotides described above were tested in the APOE knock-in mouse model C57BL/6NTac-Apoeem7250_B-A02(APOE)Tac, a heterozygous APOE mouse model. APOE knock-in mice used in this study express the full-length human APOE gene knocked into the mouse locus. Humanization of APOE gene was done via CRISPR/Cas-9-mediated gene editing, allowing for generation of a model with constitutive expression of human APOE gene. Targeting strategy was based on NCBI transcripts NM_009696.4 (mouse) and NM_000041.4 (human). Mouse genomic sequence from exon 1 to exon 4 (including the 5′ and 3′ UTRs) was replaced with the human counterpart from 141 bp upstream of exon 1 to 28 bp downstream of exon 4. A plasmid allowing expression of Cas9 mRNA, specific gRNA, and the puromycin resistance cassette, and a plasmid containing the homology regions of the mouse APOE gene, and the replaced human region were co-transfected into the Taconic Biosciences C57BL/6N Tac ES cell line. Homologous recombination clones were isolated using positive puromycin selection, and humanized allele was obtained after Cas9-mediated gene editing. C57BL/6NTac-Apoeem7250_B-A02(APOE)Tac mice were used in the in vivo experiments described below.
APOE C57BL/6NTac-Apoeem7250 knock-in mice were divided into groups of 3 mice each. Each mouse received a single ICV bolus of 300 μg of modified oligonucleotide. A group of 3 mice received a single ICV bolus with PBS as a negative control.
Two weeks post treatment, mice were sacrificed and RNA was extracted from cortical brain tissue and spinal cord for quantitative real-time RT-PCR analysis of RNA expression of APOE using human primer probe set RTS3073 (described herein above). APOE RNA levels were normalized to mouse Ppia. Mouse Ppia was amplified using primer probe set m_cyclo24 (described herein above). Results are presented as percent human APOE RNA relative to the amount of human APOE RNA in PBS treated animals, (% control).

[2] = system: human APOE RNA; test: Activity in APOE 1549 knock-in mice, single ICV bolus, 2 weeks (Example 7); assay type: in vivo; details: single ICV bolus of 300 μg, two weeks post treatment, Table 17
Procedure: Modified oligonucleotides described above were tested in APOE knock-in mice.
APOE knock-in mice (model 41549) were obtained from Taconic Biosciences. APOE knock-in mice were divided into groups of 2 mice each. Each mouse received a single intracerebroventricular (ICV) bolus of 300 μg of modified oligonucleotide. A group of 4 mice received a single ICV bolus with PBS as a negative control.
Two weeks post treatment, mice were sacrificed and RNA was extracted from cortical brain tissue and spinal cord for quantitative real-time RT-PCR analysis of RNA expression of APOE using primer probe set RTS3073 (described herein above). APOE RNA levels were normalized to mouse Ppia. Mouse Ppia was amplified using primer probe set m_cyclo24 (forward sequence TCGCCGCTTGCTGCA, designated herein as SEQ ID NO: 16; reverse sequence ATCGGCCGTGATGTCGA, designated herein as SEQ ID NO: 17; probe sequence […], designated herein as SEQ ID NO: 18). Results are presented as percent human APOE RNA relative to the amount of human APOE RNA in PBS treated animals, (% control). Each experiment is identified in separate tables below.

[3] = system: human APOE RNA; test: Dose-dependent inhibition of human APOE RNA in HepG2 cells, electroporation, 24 hours (Example 6); assay type: cell-based
Procedure, shortened: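 IC50 derived from APOE RNA levels, given as percent of untreated control after GAPDH normalization (probe sets RTS3073 and RTS104). Oligonucleotides were delivered at multiple concentrations by electroporation into HepG2 cells seeded at 50,000 per well.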

[4] = system: BJAB cells
Procedure: (§1) Human APOE modified oligonucleotides were tested for potential immunostimulatory properties in an in vitro human BJAB activation assay.
(§2) Human Burkitt lymphoma B cells, BJAB cells (DSMZ, Cat #ACC 757) were cultured in RPMI1640 medium containing 20% fetal bovine serum at 37° C. and 5% CO2. Cells were maintained at a density of 0.5-0.7×10^6 cells per milliliter. Cells were transferred to 50 mL conical Falcon tubes and centrifuged at 330 RCF for 5 minutes before being resuspended at a concentration of 7.5×10^4 cells per milliliter in RPMI culture medium containing penicillin and streptomycin. 50 μL of the cell suspension was added to a v-bottom tissue culture treated 96-well microplate. 11 μl of 10× concentrated modified oligonucleotides was then added to the plate for a final concentration of 1.6 μM and incubated for 24 hours at 37° C. and 5% CO2.
(§3) After a treatment period of 24 hours, total RNA was isolated from the cells and CCL22 RNA levels were measured by quantitative real-time RT-PCR. CCL22 RNA levels were measured by human primer-probe set RTS49260 (forward sequence [sequence], designated herein as SEQ ID NO: 19; reverse sequence [sequence], designated herein as SEQ ID NO: 20; probe sequence [sequence], designated herein as SEQ ID NO: 21). CCL22 RNA levels were normalized to total RNA content, as measured by GAPDH. Human GAPDH was measured using the human primer-probe set RTS104 (forward sequence [sequence], designated herein as SEQ ID NO: 10; reverse sequence [sequence], designated herein as SEQ ID NO: 11; probe sequence [sequence], designated herein as SEQ ID NO: 12). Levels of CCL22 RNA is presented log fold increase of CCL22, relative to untreated control cells (UTC). The assignment of the immunostimulatory properties of the test compounds is based on the immunostimulatory properties of the internal control compounds in each assay.

[5] = system: human APOE RNA; test: Dose-dependent reduction of human APOE RNA in HepG2 cells, electroporation, 20,000 cells per well, normalized to PPIA (Example 4, Table 11); assay type: cell-based; details: HepG2 cells, 20,000 cells per well, approximately 24 hours; for APOE RNA (% UTC) 5 nM / APOE RNA (% UTC) 13 nM / APOE RNA (% UTC) 33 nM / APOE RNA (% UTC) 82 nM / APOE RNA (% UTC) 205 nM / APOE RNA (% UTC) 512 nM / IC50: PPIA-normalized; for APOE RNA (% UTC) 1,280 nM: PPIA-normalized, 1,280 nM; for APOE RNA (% UTC) 3,200 nM: PPIA-normalized, 3,200 nM; for APOE RNA (% UTC) 8,000 nM: PPIA-normalized, 8,000 nM; for APOE RNA (% UTC) 20,000 nM: PPIA-normalized, 20,000 nM; for IC50: reduction of human APOE RNA
Procedure: HepG2 cells plated at a density of 20,000 cells per well were treated by electroporation with various concentrations of modified oligonucleotide as specified in the tables below. […] APOE RNA levels were measured using the human primer probe set RTS3073 (described herein above). APOE RNA levels were normalized to human PPIA. Human PPIA was amplified using human primer probe set mk_cycloA_2nd (forward sequence […], designated herein as SEQ ID NO: 13; reverse sequence […], designated herein as SEQ ID NO: 14; probe sequence […], designated herein as SEQ ID NO: 15). Normalized results are presented in the table below as percent APOE RNA, relative to the amount of APOE RNA in untreated control cells (% UTC). The half maximal inhibitory concentration (IC50) of each modified oligonucleotide was calculated in GraphPad Prism 10 (GraphPad Software, San Diego, CA) and is also presented in the table below.

[6] = system: BJAB cells; test: Evaluation of proinflammatory effects in BJAB assay, CCL22 RNA (Example 17); details: for inflammatory response in human BJAB cells: 24-hour culturing period, assay of Example 17; for LOG10 CCL22 relative to UTC / Immunostimulatory Properties: BJAB cells, 1.6 μM, 24 hours; for LOG10 CCL22 relative to UTC: CCL22 RNA normalized to GAPDH; for Immunostimulatory Properties: assigned relative to internal control compounds of each assay
Procedure: as §1, §2, §3

For “1693105: 6-10-4 MOE gapmer CTTGGTGAATCTTTATTAAA, linkages sosssszzzssssszssss (e[5mC]*eTeT*eG*eG*eT*dG[ms]dA[ms]dA[ms]dT*d[5mC]*dT*dT*dT*dA[ms]dT*eT*eA*eA*eA) [compound 1693105]”, the “APOE RNA (% control) Cortex” value ([1]; Cortex) was 65 % control, the “APOE RNA (% control) Spinal Cord” value ([1]; Spinal Cord) was 54 % control and the “APOE RNA (% control) Cortex” value ([2]; cortex) was 51 % control. The “APOE RNA (% control) Spinal Cord” value ([2]; spinal cord) was 38 % control, the IC50 [3] was 1100 nM and the “APOE RNA (% UTC)” value ([3]; 5 nM) was 117 % UTC. For the same substance, the “APOE RNA (% UTC)” value ([3]; 13 nM) was 104 % UTC, the “APOE RNA (% UTC)” value ([3]; 33 nM) was 118 % UTC and the “APOE RNA (% UTC)” value ([3]; 82 nM) was 91 % UTC. The “APOE RNA (% UTC)” value ([3]; 205 nM) was 101 % UTC, the “APOE RNA (% UTC)” value ([3]; 512 nM) was 59 % UTC and the “APOE RNA (% UTC)” value ([3]; 1,280 nM) was 43 % UTC. The “APOE RNA (% UTC)” value ([3]; 3,200 nM) was 23 % UTC, the “APOE RNA (% UTC)” value ([3]; 8,000 nM) was 21 % UTC and the “APOE RNA (% UTC)” value ([3]; 20,000 nM) was 6 % UTC.

“Aes^mCeoTeoTesGesGksTdsGdzAdzAdzTds^mCdsTdsTdsTdsAdzTksTksAesAe (eA*e[5mC]eTeT*eG*kG*dT*dG[ms]dA[ms]dA[ms]dT*d[5mC]*dT*dT*dT*dA[ms]kT*kT*eA*eA) [Compound No. 1757576]” was tested, and the “inflammatory response in human BJAB cells” value (“inflammatory response” for short) [4] was “did not induce any inflammatory response”, the “APOE RNA (% UTC) 5 nM” value [5] was 78 % UTC and the “APOE RNA (% UTC) 13 nM” value [5] was 74 % UTC. The “APOE RNA (% UTC) 33 nM” value [5] was 70 % UTC, the “APOE RNA (% UTC) 82 nM” value [5] was 56 % UTC and the “APOE RNA (% UTC) 205 nM” value [5] was 41 % UTC. For the same substance, the “APOE RNA (% UTC) 512 nM” value [5] was 25 % UTC, the “APOE RNA (% UTC) 1,280 nM” value [5] was 12 % UTC and the “APOE RNA (% UTC) 3,200 nM” value [5] was 6 % UTC. For the same substance, the “APOE RNA (% UTC) 8,000 nM” value [5] was 3 % UTC, the “APOE RNA (% UTC) 20,000 nM” value [5] was 7 % UTC and the IC50 [5] was 90 nM.

For “Aks^mCeoTeoTesGesGksTdsGdzAdzAdzTds^mCdsTdsTdsTdsAdzTksTksAesAe (kA*e[5mC]eTeT*eG*kG*dT*dG[ms]dA[ms]dA[ms]dT*d[5mC]*dT*dT*dT*dA[ms]kT*kT*eA*eA) [Compound No. 1809635]”, the “inflammatory response” value [4] was “did not induce any inflammatory response”, the “APOE RNA (% UTC) 5 nM” value [5] was 105 % UTC and the “APOE RNA (% UTC) 13 nM” value [5] was 87 % UTC. The “APOE RNA (% UTC) 33 nM” value [5] was 78 % UTC, the “APOE RNA (% UTC) 82 nM” value [5] was 66 % UTC and the “APOE RNA (% UTC) 205 nM” value [5] was 55 % UTC. The “APOE RNA (% UTC) 512 nM” value [5] was 31 % UTC, the “APOE RNA (% UTC) 1,280 nM” value [5] was 18 % UTC and the “APOE RNA (% UTC) 3,200 nM” value [5] was 16 % UTC. For the same substance, the “APOE RNA (% UTC) 8,000 nM” value [5] was 4 % UTC, the “APOE RNA (% UTC) 20,000 nM” value [5] was 2 % UTC and the IC50 [5] was 210 nM.

“TezTeoGeoGksTdsGdzAdzAdzTds^mCdsTdsTdsTdsAdzTksTksAesAesAes^mCe (antisense eT[ms]eTeGkG*dT*dG[ms]dA[ms]dA[ms]dT*d[5mC]*dT*dT*dT*dA[ms]kT*kT*eA*eA*eA*e[5mC]) [Compound No. 1809814]” was tested, and the “inflammatory response” value [6] was “did not induce any inflammatory response”, the “LOG10 CCL22 relative to UTC” value [6] was 0.07 and the “Immunostimulatory Properties” value [6] was “Non-Inflammatory”. The “APOE RNA (% UTC) 5 nM” value [5] was 102 % UTC, the “APOE RNA (% UTC) 13 nM” value [5] was 95 % UTC and the “APOE RNA (% UTC) 33 nM” value [5] was 95 % UTC. For the same substance, the “APOE RNA (% UTC) 82 nM” value [5] was 88 % UTC, the “APOE RNA (% UTC) 205 nM” value [5] was 71 % UTC and the “APOE RNA (% UTC) 512 nM” value [5] was 49 % UTC. For the same substance, the “APOE RNA (% UTC) 1,280 nM” value [5] was 19 % UTC, the “APOE RNA (% UTC) 3,200 nM” value [5] was 31 % UTC and the “APOE RNA (% UTC) 8,000 nM” value [5] was 8 % UTC. The “APOE RNA (% UTC) 20,000 nM” value [5] was 13 % UTC and the IC50 [5] was 540 nM.

For “^mCksTksTksGdzGdzTdzGdzAdzAdzTds^mCdsTdsTdsTdsAdsTdsTksAksAdzAk (antisense k[5mC]*kT*kT*dG[ms]dG[ms]dT[ms]dG[ms]dA[ms]dA[ms]dT*d[5mC]*dT*dT*dT*dA*dT*kT*kA*dA[ms]kA) [Compound No. 1785602]”, the “inflammatory response” value [6] was “did not induce any inflammatory response”, the “LOG10 CCL22 relative to UTC” value [6] was 0.34 and the “Immunostimulatory Properties” value [6] was “Non-Inflammatory”. The “APOE RNA (% UTC) 5 nM” value [5] was 75 % UTC, the “APOE RNA (% UTC) 13 nM” value [5] was 85 % UTC and the “APOE RNA (% UTC) 33 nM” value [5] was 75 % UTC. For the same substance, the “APOE RNA (% UTC) 82 nM” value [5] was 62 % UTC, the “APOE RNA (% UTC) 205 nM” value [5] was 44 % UTC and the “APOE RNA (% UTC) 512 nM” value [5] was 31 % UTC. The “APOE RNA (% UTC) 1,280 nM” value [5] was 16 % UTC, the “APOE RNA (% UTC) 3,200 nM” value [5] was 10 % UTC and the “APOE RNA (% UTC) 8,000 nM” value [5] was 8 % UTC. For the same substance, the “APOE RNA (% UTC) 20,000 nM” value [5] was 2 % UTC and the IC50 [5] was 140 nM.
